The structures appear in SMILES notation.

Assay [1] deals with T1, Carbonic anhydrase 1 (Homo sapiens, UniProt P00915). As to the kind of experiment: Inhibition of CA-1 (unknown origin) after 15 mins by CO2 hydration assay.
Target sequence in this assay (P00915 whole entry): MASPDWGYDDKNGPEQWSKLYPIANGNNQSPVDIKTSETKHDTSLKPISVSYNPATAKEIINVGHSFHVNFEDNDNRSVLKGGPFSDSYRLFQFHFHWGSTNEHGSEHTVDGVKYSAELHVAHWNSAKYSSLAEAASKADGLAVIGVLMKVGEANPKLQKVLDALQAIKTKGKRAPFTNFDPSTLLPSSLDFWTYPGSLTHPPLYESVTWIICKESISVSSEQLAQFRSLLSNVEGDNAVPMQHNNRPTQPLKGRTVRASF
Assay [2] addresses T1, Carbonic anhydrase 1. In words: Inhibition of CA-1 (unknown origin) at 10 uM after 15 mins by CO2 hydration assay.
Target sequence in this assay (P00915 2-261 limits assumed): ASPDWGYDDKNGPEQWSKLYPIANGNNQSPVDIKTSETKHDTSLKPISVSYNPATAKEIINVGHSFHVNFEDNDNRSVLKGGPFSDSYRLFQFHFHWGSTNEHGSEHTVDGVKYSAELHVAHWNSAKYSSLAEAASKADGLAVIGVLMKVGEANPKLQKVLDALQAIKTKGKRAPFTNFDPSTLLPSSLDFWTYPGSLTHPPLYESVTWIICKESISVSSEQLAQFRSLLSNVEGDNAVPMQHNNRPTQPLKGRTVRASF
In assay [3] the target is T2, Carbonic anhydrase 2 (Homo sapiens, UniProt P00918). In words: Inhibition of CA-2 (unknown origin) at 10 uM after 15 mins by CO2 hydration assay.
A further assay addresses Carbonic anhydrase 9 (Homo sapiens, UniProt Q16790). As to the kind of experiment: Inhibition of CA-9 (unknown origin) after 15 mins by CO2 hydration assay.
Assay [4] addresses T2, Carbonic anhydrase 2. In words: Inhibition of CA-2 (unknown origin) after 15 mins by CO2 hydration assay.
In a further assay the target is Carbonic anhydrase 12 (Homo sapiens, UniProt O43570). In words: Inhibition of CA-12 (unknown origin) after 15 mins by CO2 hydration assay.
Carbonic anhydrase 12, sequence (O43570 whole entry): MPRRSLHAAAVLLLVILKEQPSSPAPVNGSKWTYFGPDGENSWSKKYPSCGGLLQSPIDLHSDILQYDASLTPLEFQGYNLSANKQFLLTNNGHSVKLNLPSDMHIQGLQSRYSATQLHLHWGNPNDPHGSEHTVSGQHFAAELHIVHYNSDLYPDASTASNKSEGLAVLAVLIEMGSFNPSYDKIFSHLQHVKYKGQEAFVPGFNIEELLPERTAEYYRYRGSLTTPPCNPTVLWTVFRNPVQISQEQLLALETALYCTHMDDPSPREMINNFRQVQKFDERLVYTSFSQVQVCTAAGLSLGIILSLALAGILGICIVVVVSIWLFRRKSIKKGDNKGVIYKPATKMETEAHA

By IC50 is commonly meant the concentration that gives 50% inhibition. Read a low IC50 as inhibition by little substance. Usually inhibition stands for the drop in the measured response relative to a control, in per cent. A low value points to a response near the control. Consider `Cc1ccc(S(=O)(=O)N(C)c2ccccc2)cc1`, for which the IC50 at Carbonic anhydrase 1 [1] was above 50 µM; against Carbonic anhydrase 9 it was 0.093 µM; on Carbonic anhydrase 2 [4], above 50 µM; against Carbonic anhydrase 12, 0.266 µM. The inhibition against Carbonic anhydrase 1 [2] was 39%; against Carbonic anhydrase 2 [3], 45%.
Turning to `Cc1ccc(S(=O)(=O)Nc2ccccc2)cc1`, the IC50 against Carbonic anhydrase 1 [1] was above 50 µM; on Carbonic anhydrase 9, 0.09 µM; against Carbonic anhydrase 2 [4] it was above 50 µM. For the same molecule, the inhibition at Carbonic anhydrase 1 [2] came out at 35%; on Carbonic anhydrase 2 [3], 45%.
As to `O=[N+]([O-])c1ccc(S(=O)(=O)Nc2ccccc2)cc1`, the figures for the IC50 against Carbonic anhydrase 1 [1], against Carbonic anhydrase 9 and on Carbonic anhydrase 2 [4] were above 50 µM, 0.128 µM and 7.32 µM, respectively. The same molecule had an inhibition against Carbonic anhydrase 1 [2] of 39%.
Taken in the same sequence, the figures for `CCCC(C)NS(=O)(=O)c1ccc(C)cc1` (centres undefined) were above 50 µM, 0.07 µM, 8.07 µM and 40%.
Taken in the same sequence, the figures for `Cc1ccc(S(=O)(=O)NCCCN(C)C)cc1` were above 50 µM, 0.094 µM, 6.67 µM and 39%.
Consider `CC(=O)c1ccc(S(=O)(=O)Nc2ccccc2)cc1`, for which the values for the IC50 against Carbonic anhydrase 1 [1], against Carbonic anhydrase 9 and on Carbonic anhydrase 2 [4] were above 50 µM, 0.074 µM and above 50 µM, respectively. In addition, the inhibition at Carbonic anhydrase 1 [2] was 36%; on Carbonic anhydrase 2 [3] it was 47%.
For the molecule `Cc1ccc(S(=O)(=O)NCc2ccccc2)cc1`, the IC50 is above 50 µM at Carbonic anhydrase 1 [1], 0.076 µM at Carbonic anhydrase 9, above 50 µM on Carbonic anhydrase 2 [4] and 4.28 µM against Carbonic anhydrase 12. Besides, the inhibition stood at 34% at Carbonic anhydrase 1 [2] and 44% on Carbonic anhydrase 2 [3].
Turning to `Cc1ccc(S(=O)(=O)Nc2ccccc2-c2ccccc2)cc1`, the IC50 at Carbonic anhydrase 1 [1] was above 50 µM; at Carbonic anhydrase 9, 0.09 µM; against Carbonic anhydrase 2 [4], 5.1 µM; against Carbonic anhydrase 12, 0.226 µM. The inhibition at Carbonic anhydrase 1 [2] turned out to be 38%.
As for `Cc1ccc(S(=O)(=O)NCC(=O)O)cc1`, the results for the 50% inhibitory concentration (IC50) against Carbonic anhydrase 1 [1], on Carbonic anhydrase 9 and at Carbonic anhydrase 2 [4] were above 50 µM, 0.217 µM and 3.62 µM, respectively. On Carbonic anhydrase 1 [2], this molecule had an inhibition of 39%.
Consider `COc1ccc(S(=O)(=O)Nc2ccccc2)cc1OC`, for which the concentration for half-maximal inhibition (IC50) at Carbonic anhydrase 1 [1] is above 50 µM; against Carbonic anhydrase 9, 0.079 µM; at Carbonic anhydrase 2 [4], above 50 µM; at Carbonic anhydrase 12, 0.179 µM. Further, the results for the inhibition against Carbonic anhydrase 1 [2] and against Carbonic anhydrase 2 [3] were 39% and 45%, respectively.
